From ChEMBL document CHEMBL1201862, “PubChem BioAssay data set” (2004)
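Grown in 96-well plates, cells were treated for 48 hours with each compound at five concentrations. Insufficient inhibition: endpoint recorded as highest concentration tested. Abbreviation: GI50, concentration required for 50% inhibition of growth.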 Activity calls are given as the source filed them. No stated cut-off is given here; in the data, active = GI50 up to about 1.1 µM and inactive = higher.

Tests used:
Assay in all cases: NCI-60 cell line screen, 48 h
A498 = test system: A498
CAKI-1 = test system: CAKI-1
EKVX = test system: EKVX
HOP-62 = test system: HOP-62
HT-29 = test system: HT-29
IGROV-1 = test system: IGROV-1
K562 = test system: K562
LOX IMVI = test system: LOX IMVI
MOLT-4 = test system: MOLT-4
NCI-H23 = test system: NCI-H23
OVCAR-8 = test system: OVCAR-8
SF-268 = test system: SF-268
SF-295 = test system: SF-295
SF-539 = test system: SF-539
SR = test system: SR
UACC-257 = test system: UACC-257
UACC-62 = test system: UACC-62
UO-31 = test system: UO-31
OVCAR-5 = test system: OVCAR-5
SK-MEL-28 = test system: SK-MEL-28

Measured: GI50

COc1cc(-c2cc(-c3ccccc3)nc(-c3c(OC)ccc4c(C)cc(=O)oc34)c2)cc(OC)c1OC
inactive: A498 > 100 µM | CAKI-1 > 100 µM | EKVX > 100 µM | HOP-62 > 100 µM | HT-29 > 100 µM | IGROV-1 > 100 µM | K562 > 100 µM | LOX IMVI > 100 µM | MOLT-4 > 100 µM | NCI-H23 > 100 µM | OVCAR-8 > 100 µM | SF-268 > 100 µM | SF-295 > 100 µM | SF-539 > 100 µM | SR > 100 µM | UACC-257 > 100 µM | UACC-62 > 100 µM | UO-31 > 100 µM

CCN(CC)CC1CCCCCCCCCCC1=O (stereo not given)
inactive: A498 > 100 µM | EKVX > 100 µM | HOP-62 > 100 µM | HT-29 > 100 µM | IGROV-1 > 100 µM | K562 > 100 µM | LOX IMVI > 100 µM | MOLT-4 > 100 µM | NCI-H23 > 100 µM | OVCAR-5 > 100 µM | OVCAR-8 > 100 µM | SF-268 > 100 µM | SF-295 > 100 µM | SK-MEL-28 > 100 µM | SR > 100 µM | UACC-257 > 100 µM | UACC-62 > 100 µM | UO-31 > 100 µM

CN(NC(=O)/C(=C/c1ccc(Cl)cc1)NC(=O)c1ccccc1)c1cn[nH]c(=O)c1Cl
inactive: CAKI-1 > 100 µM | EKVX 68.5 µM | HOP-62 47 µM | HT-29 > 100 µM | IGROV-1 41.4 µM | K562 > 100 µM | LOX IMVI 62.7 µM | MOLT-4 19.9 µM | NCI-H23 > 100 µM | OVCAR-5 > 100 µM | OVCAR-8 46.9 µM | SF-268 > 100 µM | SF-295 46.6 µM | SF-539 > 100 µM | SK-MEL-28 > 100 µM | SR > 100 µM | UACC-257 > 100 µM | UACC-62 97.1 µM | UO-31 > 100 µM

FC(F)(F)c1ccc2c(c1)N(CCCNCCN1CCOCC1)c1ccccc1S2
inactive: A498 17.9 µM | EKVX 15 µM | HOP-62 12.4 µM | HT-29 3.24 µM | IGROV-1 15.8 µM | K562 2.99 µM | LOX IMVI 8.85 µM | MOLT-4 4.74 µM | NCI-H23 12.3 µM | OVCAR-5 11.3 µM | OVCAR-8 16.6 µM | SF-268 15.9 µM | SF-295 13.3 µM | SF-539 4.7 µM | SK-MEL-28 5.2 µM | SR 6.32 µM | UACC-257 10.9 µM | UACC-62 13.2 µM | UO-31 3.83 µM

N=C1/C(=C/c2ccc(F)cc2)C(=O)N=C2SC=NN12
inactive: CAKI-1 > 100 µM | EKVX > 100 µM | HOP-62 > 100 µM | HT-29 > 100 µM | IGROV-1 > 100 µM | K562 > 100 µM | LOX IMVI 12.9 µM | MOLT-4 > 100 µM | NCI-H23 > 100 µM | OVCAR-5 > 100 µM | OVCAR-8 > 100 µM | SF-268 > 100 µM | SF-295 > 100 µM | SF-539 > 100 µM | SK-MEL-28 > 100 µM | SR 92.3 µM | UACC-257 > 100 µM | UACC-62 87.9 µM | UO-31 > 100 µM

CCC(C)[C@H]1C(=O)N=C(N)N1C(=O)OCc1ccccc1 (stereo not given in full)
inactive: A498 > 100 µM | CAKI-1 > 100 µM | EKVX > 100 µM | HOP-62 > 100 µM | HT-29 > 100 µM | IGROV-1 > 100 µM | K562 > 100 µM | LOX IMVI > 100 µM | MOLT-4 > 100 µM | NCI-H23 > 100 µM | OVCAR-5 > 100 µM | OVCAR-8 > 100 µM | SF-268 > 100 µM | SF-295 > 100 µM | SK-MEL-28 > 100 µM | SR > 100 µM | UACC-257 > 100 µM | UACC-62 > 100 µM | UO-31 78 µM

O=S(OC12CC3CC(CC(C3)C1)C2)c1cc(Cl)cc(Cl)c1OCc1ccccc1 (stereo not given)
inactive: A498 > 100 µM | EKVX > 100 µM | HOP-62 > 100 µM | HT-29 > 100 µM | K562 > 100 µM | LOX IMVI > 100 µM | MOLT-4 > 100 µM | NCI-H23 > 100 µM | OVCAR-5 > 100 µM | SF-268 > 100 µM | SF-539 > 100 µM | SK-MEL-28 > 100 µM | SR > 100 µM | UACC-257 > 100 µM | UACC-62 > 100 µM | UO-31 > 100 µM

COc1ccc(N2C(=O)C3c4[nH]c5c(C)cccc5c4C4CCC(C(C)C)CC4C3C2=O)cc1 (stereo not given)
inactive: A498 14 µM | CAKI-1 15 µM | EKVX 16.7 µM | HOP-62 10 µM | HT-29 3.37 µM | IGROV-1 8.99 µM | K562 2.01 µM | LOX IMVI 3.59 µM | MOLT-4 2.12 µM | NCI-H23 17.3 µM | OVCAR-5 14 µM | OVCAR-8 12.1 µM | SF-268 6.01 µM | SF-295 14.7 µM | SK-MEL-28 13 µM | SR 4.68 µM | UACC-257 31 µM | UACC-62 > 10 µM | UO-31 11.8 µM

CCC(CC)C(=O)OC[n+]1ccc(-c2c(COC(=O)NC(C)C)c(COC(=O)NC(C)C)c3n2CCC3)cc1
inactive: A498 > 100 µM | CAKI-1 > 100 µM | EKVX > 100 µM | HOP-62 > 100 µM | IGROV-1 > 100 µM | K562 > 100 µM | MOLT-4 > 100 µM | NCI-H23 > 100 µM | OVCAR-8 > 100 µM | SF-295 > 100 µM | SF-539 > 100 µM | SR 36.7 µM | UACC-257 > 100 µM | UO-31 > 100 µM

O=CN1CCN(c2ccc3ccc(O)nc3n2)CC1
inactive: CAKI-1 > 100 µM | EKVX > 100 µM | HOP-62 > 100 µM | HT-29 > 100 µM | IGROV-1 > 100 µM | K562 > 100 µM | LOX IMVI > 100 µM | MOLT-4 > 100 µM | NCI-H23 > 100 µM | OVCAR-5 > 100 µM | OVCAR-8 > 100 µM | SF-268 69.8 µM | SF-295 > 100 µM | SF-539 > 100 µM | SK-MEL-28 > 100 µM | SR > 100 µM | UACC-257 > 100 µM | UACC-62 > 100 µM | UO-31 > 100 µM

C=COC(=O)N1C2CCCC(Cl)(C(C)=O)C1CC2 (stereo not given)
inactive: A498 > 100 µM | CAKI-1 > 100 µM | EKVX > 100 µM | HOP-62 > 100 µM | HT-29 > 100 µM | IGROV-1 > 100 µM | K562 > 100 µM | LOX IMVI > 100 µM | MOLT-4 > 100 µM | NCI-H23 > 100 µM | OVCAR-5 > 100 µM | OVCAR-8 > 100 µM | SF-268 66.1 µM | SF-295 > 100 µM | SK-MEL-28 > 100 µM | SR > 100 µM | UACC-257 > 100 µM | UACC-62 > 100 µM | UO-31 > 100 µM

CCN(CC(=O)O)C(=O)c1cccnc1
inactive: A498 > 100 µM | CAKI-1 > 100 µM | EKVX > 100 µM | HOP-62 > 100 µM | HT-29 > 100 µM | IGROV-1 > 100 µM | K562 > 100 µM | LOX IMVI > 100 µM | MOLT-4 > 100 µM | NCI-H23 > 100 µM | OVCAR-5 > 100 µM | OVCAR-8 > 100 µM | SF-268 > 100 µM | SF-295 > 100 µM | SK-MEL-28 > 100 µM | SR > 100 µM | UACC-257 > 100 µM | UACC-62 > 100 µM | UO-31 > 100 µM

O=C(c1ccc2ccccc2c1O)N1CCCCC1
inactive: A498 > 100 µM | CAKI-1 > 100 µM | EKVX 61.4 µM | HOP-62 > 100 µM | HT-29 > 100 µM | IGROV-1 > 100 µM | K562 28.4 µM | LOX IMVI 90.4 µM | MOLT-4 23.2 µM | NCI-H23 32.4 µM | OVCAR-8 68.2 µM | SF-268 > 100 µM | SF-295 92.9 µM | SF-539 > 100 µM | SK-MEL-28 > 100 µM | SR > 10 µM | UACC-257 > 100 µM | UACC-62 > 100 µM | UO-31 > 100 µM

COc1cc2c(cc1OC)C(=O)/C(=C/c1ccc(N(C)C)cc1)CC2
inactive: CAKI-1 > 10 µM | EKVX > 10 µM | HOP-62 > 10 µM | HT-29 > 10 µM | IGROV-1 > 10 µM | K562 > 10 µM | LOX IMVI > 10 µM | MOLT-4 > 10 µM | NCI-H23 > 10 µM | OVCAR-5 > 10 µM | OVCAR-8 > 10 µM | SF-268 > 10 µM | SF-295 > 10 µM | SF-539 > 10 µM | SK-MEL-28 > 10 µM | SR > 10 µM | UACC-257 3.38 µM | UACC-62 > 10 µM | UO-31 > 10 µM

FC(F)(F)C1(Cl)C(Cl)(c2ccccc2)C1(Cl)c1ccccc1 (stereo not given)
inactive: CAKI-1 13 µM | EKVX 16.3 µM | HOP-62 16.3 µM | HT-29 14.8 µM | IGROV-1 12.9 µM | K562 33.7 µM | LOX IMVI 13.3 µM | MOLT-4 10.3 µM | NCI-H23 14.3 µM | OVCAR-5 16.4 µM | OVCAR-8 18 µM | SF-268 17.3 µM | SF-295 15.8 µM | SF-539 16.1 µM | SK-MEL-28 14.9 µM | SR 7.08 µM | UACC-257 14.6 µM | UACC-62 15.8 µM | UO-31 14.8 µM
